Here are results for five compounds from ChEMBL document CHEMBL3244242, “3-Benzazocine amidinium nitronates. An unusual type of opiate antagonist” (J Med Chem, 1978).

Series [1] concerns Mus musculus. The series is described as follows: Analgesic activity in Swiss albino mouse at 20 mg/kg, sc by mouse tail-flick test. Format: functional, organism-based. Set-up: dose 20 mg/kg.
For series [2], the system named is Mus musculus. The series is described as follows: Inhibition of morphine sulfate-induced analgesic activity in Swiss albino mouse at 20 mg/kg, sc measured 24 hrs post morphine sulfate challenge by mouse tail-flick test. Format: functional. The following applies: route subcutaneous.
The subject of series [3] is Mus musculus. The experiment in a line: Inhibition of morphine sulfate-induced analgesic activity in Swiss albino mouse at 20 mg/kg, sc measured 48 hrs post morphine sulfate challenge by mouse tail-flick test relative to naloxone hydrochloride. Format: functional, organism-based. Details: dose 20 mg/kg.
The nature of series [4]: Solubility of the compound in water. Format: physicochemical. Particulars: buffer.
Series [5] relates to Mus musculus. The series is described as follows: Analgesic activity in Swiss albino mouse at 5 to 20 mg/kg administered intramuscularly by mouse tail-flick test. Format: functional, organism-based.
Series [6] deals with Mus musculus. The experiment in a line: Inhibition of morphine sulfate-induced analgesic activity in Swiss albino mouse at 20 mg/kg administered intramuscularly measured 30 mins post morphine sulfate challenge by mouse tail-flick test. It counts as functional, organism-based. Details: dose 20 mg/kg.
In series [7] the test system is Mus musculus. The series is described as follows: Inhibition of morphine sulfate-induced analgesic activity in Swiss albino mouse at 20 mg/kg administered intramuscularly measured 8 hrs post morphine sulfate challenge by mouse tail-flick test. Format: functional. The following applies: route intramuscular.
Series [8] concerns Mus musculus. The experiment in a line: Inhibition of morphine sulfate-induced analgesic activity in sc dosed Swiss albino mouse measured 30 mins post morphine sulfate challenge by mouse tail-flick test. It counts as functional.

Molecules are shown by their SMILES. Active and inactive are the calls of the source. The rule behind the calls is not given here.

Turning to `CN(C)C(=[NH2+])Cc1ccccc1.CN(C)C1=NC2C(=[N+]([O-])[O-])c3c(cccc3[N+](=O)[O-])C(C1c1ccccc1)C2[N+](=O)[O-]` (centres undefined), the result in the series with Mus musculus [1] was inactive. The compound further yielded an Imax in the series with Mus musculus [2] of 50%. The inhibition result with Mus musculus [3] is “Active”. Also, the solubility result in series [4] is “Insoluble”.

For the compound `CN(C)C(=[NH2+])Cc1ccccc1.CN(C)C1=NC2c3ccccc3C(=[N+]([O-])[O-])C(C1c1ccccc1)C2[N+](=O)[O-]` (centres undefined), the outcome in the series on Mus musculus [5] and in the series on Mus musculus [6] was inactive. For the same compound, the solubility entry in series [4] was “Insoluble”.

As to `CN(C)C(=[NH2+])Cc1ccccc1.CN(C)C1=NC2C(=[N+]([O-])[O-])c3ccc([N+](=O)[O-])cc3C(C1c1ccccc1)C2[N+](=O)[O-]` (centres undefined), in the series with Mus musculus [5], the result was inactive. In the series with Mus musculus [7], this compound returned an Imax of 50%. Moreover, the solubility entry in series [4] is recorded as “Insoluble”.

`CN(C)C(=[NH2+])Cc1ccccc1.CN(C)C1=NC2c3cc([N+](=O)[O-])ccc3C(=[N+]([O-])[O-])C(C1c1ccccc1)C2[N+](=O)[O-]` (centres undefined): the result in the series with Mus musculus [5] and with Mus musculus [6] was inactive. Besides, in series [4], the solubility result is given as “Insoluble”.

In turn, `C[C@@H]1C2Cc3ccc([N+](=O)[O-])cc3[C@@]1(C)CCN2CC1CC1` yielded an AD50 in the series with Mus musculus [8] of 9.6 mg/kg.
